Reference: paper PMC7738508, “A therapeutic combination of two small molecule toxin inhibitors provides broad preclinical efficacy against viper snakebite” (Nature Communications, 2020)
“And” between values parts separate entries of the source, which are not always exact repeats. Equal values may be shown once.

Columns and labels:
[1] = test system: procoagulant activity of Echis ocellatus venom (citrated bovine plasma); experiment: plasma clotting assay; format: biochemical; conditions: Echis ocellatus venom 100 ng, independent repeats
Procedure: (§1) We used a previously developed plasma clotting assay[35] to measure venom-induced coagulation. Briefly, 100 ng of each venom was incubated at 37 °C for 30 min in the presence or absence of inhibitors (150 µM to 150 nM final concentrations). The final reaction consisted of 10 µl venom ± inhibitors in PBS, 20 µl 20 mM CaCl2, and 20 µl citrated bovine plasma (VWR). The samples were pipetted in triplicate into 384-well plates, and absorbance monitored at 595 nm for 2 h at 25 °C on an Omega FLUOstar instrument. We calculated the maximum clotting velocity of each of the curves as per clot waveform analysis, by calculating the maximum of the first derivative. The means of at least three independent experimental runs for each condition were plotted at each inhibitor concentration with SEMs.

[2] = test system: procoagulant activity of Bothrops asper venom (citrated bovine plasma); experiment: plasma clotting assay; format: biochemical; conditions: Bothrops asper venom 100 ng, independent repeats
Procedure: as §1

[3] = test system: coagulopathic activity of Daboia russelii venom (citrated bovine plasma); experiment: plasma clotting assay; format: biochemical; design: key to maximum clotting velocity: max of first derivative of A595 clot curve (max clotting velocity); conditions: for maximum clotting velocity: Daboia russelii venom 100 ng, independent repeats
Procedure: as §1

[4] = test system: procoagulant activity of viper venoms (citrated bovine plasma); experiment: plasma clotting assay, viper venoms overall; format: biochemical
Procedure: as §1

[5] = test system: Echis ocellatus venom SVMP activity; experiment: fluorogenic SVMP assay; format: biochemical; conditions: independent repeats
Procedure: (§2) The SVMP assay measuring metalloproteinase activity and the plasma assay measuring coagulation in the presence or absence of venoms and inhibitors were performed as previously described. The SVMP assay kinetically measured cleavage of a quenched fluorogenic substrate (ES010, R&D Biosystems) by venom in the presence or absence of inhibitors.
(§3) Briefly, 10 µl of the substrate (supplied as a 6.2 mM stock) was used per 5 ml reaction buffer (150 mM NaCl, 50 mM Tris-Cl pH 7.5). Reactions consisted of 10 µl of venom ± inhibitors in PBS and 90 µl of substrate. Venoms were used at 1 µg/reaction and final inhibitor concentrations ranged from 150 µM to 150 nM. Samples were preincubated for 30 min at 37 °C and pipetted in triplicate into 384-well plates (Greiner). Thereafter, data was collected on an Omega FLUOstar (BMG Labtech) instrument at an excitation wavelength of 320 nm and emission wavelength of 405 nm at 25 °C for 1 h. The areas under the curve (AUCs) in the 0–40 min interval were calculated for each sample using MARS data analysis software v3.31 (BMG Labtech); this time point was chosen as the time where all fluorescence curves had reached a plateau (maximum fluorescence). For comparing venom-only samples, the means of at least three independent experimental runs for each condition, expressed as AUCs (n ≥ 3), were plotted at each inhibitor concentration with standard error of the mean (SEM). To determine inhibitor efficacy, the AUCs for each of the samples that consisted of venom + inhibitors were transformed and expressed as percentages of the venom-only sample (where the venom was 100%). The negative control (PBS-only) was also expressed relative to the venom, and the variation in background was presented as an interval delineated by the lowest and highest values in the PBS-only samples across concentrations and inhibitors for a specific venom.

[6] = test system: Echis carinatus venom SVMP activity; experiment: fluorogenic SVMP assay; format: biochemical; conditions: independent repeats
Procedure: as §2, §3

[7] = test system: Bothrops asper venom SVMP activity; experiment: fluorogenic SVMP assay; format: biochemical; conditions: independent repeats
Procedure: as §2, §3

[8] = test system: Bitis arietans venom SVMP activity; experiment: fluorogenic SVMP assay; format: biochemical; conditions: independent repeats
Procedure: as §2, §3

[9] = test system: procoagulant activity of Echis carinatus venom (citrated bovine plasma); experiment: plasma clotting assay; format: biochemical; design: key: max of first derivative of A595 clot curve (max clotting velocity); conditions: Echis carinatus venom 100 ng, independent repeats
Procedure: as §1

[10] = test system: E. ocellatus venom; conditions: cited from earlier work
[11] = test system: SVMP bioactivity of the four active venoms (E. ocellatus, E. carinatus, B. asper, B. arietans); experiment: in vitro kinetic fluorogenic SVMP assay, viper venoms overall; format: biochemical
Procedure: as §2, §3

[12] = test system: plasma coagulation; format: biochemical, bovine; conditions: no venom; high doses (150 µM)
Procedure: as §1

[13] = cited from earlier work
[14] = test system: Echis ocellatus venom SVSP activity; experiment: chromogenic SVSP assay; format: biochemical; conditions: nafamostat 150 nM, independent repeats
Procedure: (§4) SVSP activity was measured using a chromogenic substrate (S-2288, Cambridge Bioscience). Reactions consisted of 15 µl of venom ± inhibitors in PBS, 15 µl of assay buffer (100 mM Tris-Cl pH 8.5, 100 mM NaCl) and 15 µl of 6 mM substrate. A positive venom-only control, a negative control containing 15 µl of PBS and a drug-only control (where applicable) were also included. The final substrate concentration was 2 mM and venoms were used at 1 µg/reaction. When testing inhibitors, these were preincubated with the venoms for 30 min at 37 °C with concentrations ranging from 150 µM to 150 nM (tenfold dilutions). The samples were pipetted in triplicate into 384-well plates (Greiner) and absorbance at 405 nm was monitored kinetically for ~30 min on an Omega FLUOstar instrument (BMG Labtech). Given the linearity of the resulting slopes, negative control readings (PBS) were subtracted from each reading and the rate of substrate consumption calculated by measuring the slope between 0 and 5 min. The mean rates (expressed as ΔAbs/time/µg venom) of at least three independent experimental runs for each condition (n ≥ 3) were plotted at each inhibitor concentration with SEMs using Prism v8 software (GraphPad).

[15] = test system: Bothrops asper venom SVSP activity; experiment: chromogenic SVSP assay; format: biochemical; conditions: independent repeats
Procedure: as §4

[16] = test system: Bitis arietans venom SVSP activity; experiment: chromogenic SVSP assay; format: biochemical; conditions: independent repeats
Procedure: as §4

[17] = test system: Echis carinatus venom SVSP activity; experiment: chromogenic SVSP assay; format: biochemical; conditions: independent repeats
Procedure: as §4

[18] = test system: SVSP activity of viper venoms; experiment: chromogenic SVSP assay, viper venoms overall; format: biochemical
Procedure: as §4

[19] = test system: E. ocellatus venom; experiment: in vivo preincubation model of envenoming (i.v.); design: species or system CD-1 mice
Procedure: All animal experiments were conducted using protocols approved by the Animal Welfare and Ethical Review Boards of the Liverpool School of Tropical Medicine and the University of Liverpool, and performed in specific pathogen-free conditions under licensed approval (PPL #4003718 and #P5846F90) of the UK Home Office and in accordance with the Animal [Scientific Procedures] Act 1986 and institutional guidance on animal care. All experimental animals (18–20 g [4–5 weeks old], male, CD-1 mice, Charles River, UK) were housed in groups of five with environmental enrichment, water and food ad libitum and their health monitored daily during acclimatization. The experimental design was based upon 3R-refined WHO-recommended protocols[28],[41], with animals randomized and observers being blinded to the experimental condition. The median lethal doses (venom LD50) used for E. ocellatus (Nigeria), E. carinatus (India), B. asper (Costa Rica), D. russelii (Sri Lanka) and B. arietans (Nigeria) venoms were previously determined[25],[41],[44],[45].
All experimental doses were prepared to a volume of 200 µl in PBS and incubated at 37 °C for 30 min prior to their intravenous injection via the tail vein. Animals were monitored for 6 h, and euthanized via rising concentrations of CO2 upon observation of previously defined humane end points that are predicators of lethality (e.g., seizure, pulmonary distress, paralysis, hemorrhage)[28]. Deaths, time of death, and survivors were recorded; where death/time of death actually represents the implementation of euthanasia based on defined humane end points.
For all experimental animals described above, blood samples were collected via cardiac puncture immediately post-euthanasia. Plasma was separated by centrifugation at 400 × g for 10 min and stored at −80 °C. We assessed the levels of thrombin-antithrombin complexes (TAT) and soluble thrombomodulin using mouse ELISA Kits (ab137994 and ab209880, Abcam), following the manufacturer’s protocol. All available plasma samples (some were unobtainable via cardiac puncture due to extensive internal hemorrhage) were assessed if the time of death within the group varied, whereas three samples were randomly chosen if the time of death was the same (e.g., either very rapid death within 2 min, or survival until the end of the experiment [360 min or 24 h]). The resulting data was plotted as the median of duplicate measurements for each animal and is presented with standard deviations (SDs).

## O=S(=O)(O)CC(S)CS (stereo not drawn) [DMPS, 2,3-dimercapto-1-propanesulfonic acid]
[1]; inhibitor 15 µM
  maximum clotting velocity: 0.09233 and 0.098 and 0.085
[1]; inhibitor 150 µM
  maximum clotting velocity: 0.03733 and 0.04867 and 0.039
[2]; inhibitor 15 µM
  maximum clotting velocity: 0.04261 and 0.04406 and 0.05475
[2]; inhibitor 150 µM
  maximum clotting velocity: 0.03159 and 0.02725 and 0.0282
[3]; D. russelii venom
  neutralizing the procoagulant activity: ineffective
[3]; inhibitor 15 µM
  maximum clotting velocity: 0.1186 and 0.1081 and 0.1102
[3]; inhibitor 150 µM
  maximum clotting velocity: 0.07853 and 0.08841 and 0.07869
[4]; E. ocellatus, E. carinatus and B. asper venoms, highest dose 150 µM
  neutralizing the procoagulant activities: effective
[4]; range across all venoms, lower end of dimercaprol and marimastat ranges given as < 0.15, read-out: IC50, inhibition of procoagulant venom activity
  IC50: 800 to 25900 nM
[5]; inhibitor 15 µM
  SVMP activity, percentage of the venom-only sample: 18.6328% and 21.5132% and 17.5016%
[5]; inhibitor 150 µM
  SVMP activity, percentage of the venom-only sample: 15.3569% and 14.8369% and 16.006%
[6]; inhibitor 15 µM
  SVMP activity, percentage of the venom-only sample: 24.5956% and 26.5777% and 20.6819%
[6]; inhibitor 150 µM
  SVMP activity, percentage of the venom-only sample: 13.0224% and 14.752% and 12.5581%
[7]; inhibitor 15 µM
  SVMP activity, percentage of the venom-only sample: 34.6541% and 41.4523% and 39.2938%
[7]; inhibitor 150 µM
  SVMP activity, percentage of the venom-only sample: 33.142% and 30.6392% and 28.5849%
[8]; inhibitor 15 µM
  SVMP activity, percentage of the venom-only sample: 22.3961% and 20.1207% and 18.6801%
[8]; inhibitor 150 µM
  SVMP activity, percentage of the venom-only sample: 20.1452% and 19.0476% and 17.6656%
[9]; inhibitor 15 µM
  maximum clotting velocity: 0.04133 and 0.038 and 0.05133
[9]; inhibitor 150 µM
  maximum clotting velocity: 0.033 and 0.04 and 0.03533
[10]; 90 µg E. ocellatus venom i.p., 120 µg DMPS i.p. 15 mins later, D + AV also 168 µl EchiTAbG i.v. 1 hr after venom, 1 = death (=), 0 = survived (>=), ref Albulescu et al.1
  survival time of individual animals (Kaplan-Meier source data): 12.6 h and 21.51 h and 15.51 h and ≥ 24 h
[10]; same preclinical model, E. ocellatus
  duration for which lethality was prevented: ~ 8 h
[11]; across the active venoms
  lowest concentration generally effective / required to fully inhibit SVMP activities: 15 µM
[11]; range across the active venoms, read-out: IC50s, inhibition of venom SVMP activity
  IC50: 290 to 4190 nM

## N=C(N)c1ccc2cc(OC(=O)c3ccc(N=C(N)N)cc3)ccc2c1 [nafamostat]
[12]
  effect on normal plasma clotting: dramatically inhibits plasma coagulation
[13]
  half-life: ~ 8 min
[14]
  SVSP activity, rate of substrate consumption: 0.01667 ΔAbs/time/µg venom and 0.02387 ΔAbs/time/µg venom and 0.02696 ΔAbs/time/µg venom
[15]; nafamostat 150 nM
  SVSP activity, rate of substrate consumption: 0.03413 ΔAbs/time/µg venom and 0.03851 ΔAbs/time/µg venom and 0.04036 ΔAbs/time/µg venom
[15]; nafamostat 15 uM
  SVSP activity, rate of substrate consumption: 0.003733 ΔAbs/time/µg venom and 0.002738 ΔAbs/time/µg venom and 0.004018 ΔAbs/time/µg venom
[16]; nafamostat 150 nM
  SVSP activity, rate of substrate consumption: 0.0636 ΔAbs/time/µg venom and 0.06929 ΔAbs/time/µg venom and 0.08741 ΔAbs/time/µg venom
[16]; nafamostat 15 uM
  SVSP activity, rate of substrate consumption: 0.0014 ΔAbs/time/µg venom and 0.001071 ΔAbs/time/µg venom and 0.001786 ΔAbs/time/µg venom
[17]; nafamostat 150 nM
  SVSP activity, rate of substrate consumption: 0.08494 ΔAbs/time/µg venom and 0.09756 ΔAbs/time/µg venom and 0.1079 ΔAbs/time/µg venom
[17]; nafamostat 15 uM
  SVSP activity, rate of substrate consumption: 0.001726 ΔAbs/time/µg venom and 0.002857 ΔAbs/time/µg venom and 0.003095 ΔAbs/time/µg venom
[18]; highest doses 150 and 15 µM, irrespective of venom
  inhibition of SVSP activity: completely inhibiting SVSP activity
[18]; range across venoms, read-out: IC50s, inhibition of venom SVSP activity
  IC50: 120 to 1070 nM
[19]; 45 µg E. ocellatus venom preincubated with 60 µg of each drug, i.v., 6 h
  protection against venom-induced lethality: no evident efficacy
[19]; plasma after euthanasia, E. ocellatus venom + 60 µg of each drug, venom-only mean 1127.3, normal mice 10.2–15.9
  thrombin-antithrombin (TAT) levels, range in group: 543.9 to 859.1 ng/mL
